Source: PubChem BioAssay (NCI)
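Values below derive from 48-hour exposures of cells grown in 96-well plates, with endpoints linearly interpolated between the two concentrations bracketing the appropriate inhibition level. TGI: total growth inhibition.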

What was measured:
Experiment in all cases: NCI tumour cell line growth inhibition, 48 h
A498 renal = tested on: A498 renal
A549 NSCLC = tested on: A549 NSCLC
CAKI-1 renal = tested on: CAKI-1 renal
CCRF-CEM leukemia = tested on: CCRF-CEM leukemia
COLO 205 colon = tested on: COLO 205 colon
DLD-1 colon = tested on: DLD-1 colon
DMS 114 small cell lung = tested on: DMS 114 small cell lung
DMS 273 small cell lung = tested on: DMS 273 small cell lung
EKVX NSCLC = tested on: EKVX NSCLC
HCC-2998 colon = tested on: HCC-2998 colon
HCT-116 colon = tested on: HCT-116 colon
HCT-15 colon = tested on: HCT-15 colon
HL-60(TB) leukemia = tested on: HL-60(TB) leukemia
HOP-18 NSCLC = tested on: HOP-18 NSCLC
HOP-62 NSCLC = tested on: HOP-62 NSCLC
HOP-92 NSCLC = tested on: HOP-92 NSCLC
HT29 colon = tested on: HT29 colon
IGROV1 ovarian = tested on: IGROV1 ovarian
K-562 leukemia = tested on: K-562 leukemia
KM12 colon = tested on: KM12 colon
KM20L2 colon = tested on: KM20L2 colon
LOX IMVI melanoma = tested on: LOX IMVI melanoma
M19-MEL melanoma = tested on: M19-MEL melanoma
MALME-3M melanoma = tested on: MALME-3M melanoma
MCF7 breast = tested on: MCF7 breast
MOLT-4 leukemia = tested on: MOLT-4 leukemia
NCI-H226 lung = tested on: NCI-H226 lung
NCI-H23 lung = tested on: NCI-H23 lung
NCI-H460 lung = tested on: NCI-H460 lung
NCI-H522 lung = tested on: NCI-H522 lung
NCI/ADR-RES ovarian = tested on: NCI/ADR-RES ovarian
OVCAR-3 ovarian = tested on: OVCAR-3 ovarian
OVCAR-4 ovarian = tested on: OVCAR-4 ovarian
OVCAR-5 ovarian = tested on: OVCAR-5 ovarian
OVCAR-8 ovarian = tested on: OVCAR-8 ovarian
P388 leukemia = tested on: P388 leukemia
P388/ADR leukemia = tested on: P388/ADR leukemia
RPMI-8226 leukemia = tested on: RPMI-8226 leukemia
RXF 393 renal = tested on: RXF 393 renal
SF-268 CNS = tested on: SF-268 CNS
SF-295 CNS = tested on: SF-295 CNS
SF-539 CNS = tested on: SF-539 CNS
SK-MEL-2 melanoma = tested on: SK-MEL-2 melanoma
SK-MEL-28 melanoma = tested on: SK-MEL-28 melanoma
SK-MEL-5 melanoma = tested on: SK-MEL-5 melanoma
SK-OV-3 ovarian = tested on: SK-OV-3 ovarian
SN12C renal = tested on: SN12C renal
SN12K1 renal = tested on: SN12K1 renal
SNB-19 CNS = tested on: SNB-19 CNS
SNB-75 CNS = tested on: SNB-75 CNS
SNB-78 CNS = tested on: SNB-78 CNS
SW-620 colon = tested on: SW-620 colon
U251 CNS = tested on: U251 CNS
UACC-257 melanoma = tested on: UACC-257 melanoma
UACC-62 melanoma = tested on: UACC-62 melanoma
UO-31 renal = tested on: UO-31 renal
XF 498 CNS = tested on: XF 498 CNS

COc1cc2c(cc1OC)C(C(c1ccccc1)c1ccccc1)N(C)CC2 (configuration not stated)
TGI (A498 renal): > 100 µM | TGI (A549 NSCLC): > 100 µM | TGI (CAKI-1 renal): > 100 µM | TGI (CCRF-CEM leukemia): > 100 µM | TGI (COLO 205 colon): 33.5 µM | TGI (DLD-1 colon): > 100 µM | TGI (DMS 114 small cell lung): > 100 µM | TGI (DMS 273 small cell lung): > 100 µM | TGI (EKVX NSCLC): > 100 µM | TGI (HCC-2998 colon): 63.8 µM | TGI (HCT-116 colon): > 100 µM | TGI (HCT-15 colon): > 100 µM | TGI (HL-60(TB) leukemia): > 100 µM | TGI (HOP-18 NSCLC): > 100 µM | TGI (HOP-62 NSCLC): > 100 µM | TGI (HOP-92 NSCLC): > 70.8 µM | TGI (HT29 colon): > 100 µM | TGI (IGROV1 ovarian): > 100 µM | TGI (K-562 leukemia): > 100 µM | TGI (KM12 colon): > 100 µM | TGI (KM20L2 colon): > 73.7 µM | TGI (LOX IMVI melanoma): > 100 µM | TGI (M19-MEL melanoma): > 100 µM | TGI (MALME-3M melanoma): 56.2 µM | TGI (MCF7 breast): > 100 µM | TGI (MOLT-4 leukemia): > 100 µM | TGI (NCI-H226 lung): > 100 µM | TGI (NCI-H23 lung): > 100 µM | TGI (NCI-H460 lung): > 100 µM | TGI (NCI-H522 lung): > 100 µM | TGI (NCI/ADR-RES ovarian): > 100 µM | TGI (OVCAR-3 ovarian): > 100 µM | TGI (OVCAR-4 ovarian): > 100 µM | TGI (OVCAR-5 ovarian): > 100 µM | TGI (OVCAR-8 ovarian): > 100 µM | TGI (P388 leukemia): > 100 µM | TGI (P388/ADR leukemia): > 100 µM | TGI (RPMI-8226 leukemia): > 100 µM | TGI (RXF 393 renal): 60.2 µM | TGI (SF-268 CNS): > 100 µM | TGI (SF-295 CNS): > 100 µM | TGI (SF-539 CNS): > 100 µM | TGI (SK-MEL-2 melanoma): > 100 µM | TGI (SK-MEL-28 melanoma): > 100 µM | TGI (SK-MEL-5 melanoma): 47.6 µM | TGI (SK-OV-3 ovarian): > 100 µM | TGI (SN12C renal): > 100 µM | TGI (SN12K1 renal): > 65.6 µM | TGI (SNB-19 CNS): > 100 µM | TGI (SNB-75 CNS): 99.5 µM | TGI (SNB-78 CNS): > 100 µM | TGI (SW-620 colon): > 100 µM | TGI (U251 CNS): > 100 µM | TGI (UACC-257 melanoma): > 86.9 µM | TGI (UACC-62 melanoma): > 100 µM | TGI (UO-31 renal): > 100 µM | TGI (XF 498 CNS): 97.8 µM
